The values below come from publication PMC10618370, “Mur ligase F as a new target for the flavonoids quercitrin, myricetin, and (–)-epicatechin” (Journal of Computer-Aided Molecular Design, 2023).

Read-outs that look alike come from different tables or passages of the source.

For one experiment, the target named is E. coli MurE (Escherichia coli, UniProt P22188). Put plainly: MurE inhibition assay (Malachite green). In kind it is biochemical. Conditions: 0.25 h, read-out: RA (%) @ 100 µM MurE. As to the method: (§1) Inhibition of the Mur ligases was determined using the Malachite green assay, with slight modifications. […] In all cases, the final concentration of DMSO was 5% (v/v).
(§2) After incubation for 15 min at 37 °C, the enzyme reaction was terminated by the addition of 100 µM Biomol green reagent®, and the absorbance was measured at 650 nm after 5 min. Experiments to determine the RA run in triplicate. Residual activities were calculated with respect to control assays without the tested compounds, but with the 5% DMSO carrier. The IC50 values were determined by measuring the residual activities at seven different compound concentrations, and they represent the concentration of the compound at which the residual activity was 50%. IC50 values were obtained by plotting the residual enzyme activities against the applied inhibitor concentrations, fitting the experimental data to the 4-parameter Hill equation: Y=Bottom-Top-Bottom/1+10^logIC50-X×HillSlope , where X is the logarithm of the inhibitor concentration, and Y is the residual activity. The IC50 values were determined in three independent experiments. GraphPad Prism 8.2.0 (GraphPad Software, San Diego, CA, USA) was used for the fitting procedure.
(§3) The assay detects the phosphate formed in each enzyme reaction. To avoid any possibility of the compounds inhibiting the enzymes due to aggregation, a detergent (0.005% Triton-X114) was added to the test system.

In another experiment the target is E. coli MurD (Escherichia coli, UniProt P14900). Put plainly: MurD inhibition assay (Malachite green). In kind it is biochemical. To be noted: 0.25 h, read-out: RA (%) @ 100 µM MurD. Here is the method:
as §1, §2, §3

The next experiment concerns the target E. coli MurF (Escherichia coli, UniProt P11880). Nature of the experiment: MurF inhibition assay (Malachite green). In kind it is biochemical. To be noted: 0.25 h; residual activity at 100 µM compound; mean ± SD of three independent experiments; read-out: RA (%) @ 100 µM MurF. Here is the method:
as §1, §2, §3

A further experiment deals with E. coli (ATCC 25,922). Put plainly: Antibacterial assay, broth microdilution MIC. The class given is cell-based. Conditions: Escherichia coli, ATCC25. Here is the method:
(§4) Antimicrobial testing was performed by the broth microdilution method in 96-well plates following the Clinical and Laboratory Standards Institute guidelines and European Committee on Antimicrobial Susceptibility Testing recommendations (Clinical and Laboratory Standards Institute). Bacterial suspensions equivalent to 0.5 McFarland turbidity standard were diluted with cation-adjusted Mueller–Hinton broth with TES buffering (ThermoFisher Scientific), for a final inoculum of 10^5 CFU/ mL. Compounds dissolved in DMSO and the inoculum were mixed and incubated for 20 h at 35 °C. […] The MICs were determined against two reference bacterial strains, S. aureus (ATCC 29,213) and E. coli (ATCC 25,922). Tetracycline was used as the positive control on every assay plate, with MICs of 0.5 and 1 µg/mL for S. aureus and E. coli, respectively. All MICs were determined in three independent experiments.
(In general: In broth dilution the organism is exposed to a series of concentrations in liquid medium.)

The next experiment concerns S. aureus (ATCC 29,213). Put plainly: Antibacterial assay, broth microdilution MIC. The class given is cell-based. Conditions: for MIC: Staphylococcus aureus, ATCC29. Here is the method:
as §4

For another experiment, the target named is E. coli MurC (Escherichia coli, UniProt P17952). Put plainly: MurC inhibition assay (Malachite green). In kind it is biochemical. Conditions: 0.25 h, read-out: RA (%) @ 100 µM MurC. Here is the method: as §1, §2, §3
[1] abbreviates: residual activity at 100 µM compound, mean ± SD of three independent experiments.
Where [2] appears, read: broth microdilution, 20 h at 35 °C, read-out: MIC E.coli.
[3] abbreviates: broth microdilution, 20 h at 35 °C, read-out: MIC S.aureus.

Chain of E. coli MurD (P14900 whole entry): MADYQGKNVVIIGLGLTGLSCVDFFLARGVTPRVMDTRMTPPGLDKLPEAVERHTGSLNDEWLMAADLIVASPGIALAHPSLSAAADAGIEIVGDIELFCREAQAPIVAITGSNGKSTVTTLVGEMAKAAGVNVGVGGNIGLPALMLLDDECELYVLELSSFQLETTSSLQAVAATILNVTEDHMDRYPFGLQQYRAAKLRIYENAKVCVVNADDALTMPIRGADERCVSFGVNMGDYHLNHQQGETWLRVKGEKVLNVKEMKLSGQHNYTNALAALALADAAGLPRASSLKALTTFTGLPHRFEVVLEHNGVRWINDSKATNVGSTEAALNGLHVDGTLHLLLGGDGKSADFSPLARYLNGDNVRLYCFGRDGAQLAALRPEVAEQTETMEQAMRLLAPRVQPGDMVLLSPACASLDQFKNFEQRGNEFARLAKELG
Chain of E. coli MurC (P17952 whole entry): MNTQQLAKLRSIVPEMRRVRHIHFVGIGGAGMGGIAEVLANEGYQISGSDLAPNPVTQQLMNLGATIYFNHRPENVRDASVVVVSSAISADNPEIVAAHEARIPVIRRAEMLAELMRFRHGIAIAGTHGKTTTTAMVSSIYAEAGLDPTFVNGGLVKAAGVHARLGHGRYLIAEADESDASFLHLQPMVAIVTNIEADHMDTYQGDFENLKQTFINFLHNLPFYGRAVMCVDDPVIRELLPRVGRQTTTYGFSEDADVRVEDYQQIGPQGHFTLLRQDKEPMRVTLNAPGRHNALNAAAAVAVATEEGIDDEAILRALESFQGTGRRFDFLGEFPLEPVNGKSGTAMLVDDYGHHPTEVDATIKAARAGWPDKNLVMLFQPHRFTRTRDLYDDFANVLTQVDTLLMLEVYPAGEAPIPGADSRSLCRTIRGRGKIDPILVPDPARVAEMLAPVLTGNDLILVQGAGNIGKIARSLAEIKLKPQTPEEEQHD
Chain of E. coli MurF (P11880 whole entry): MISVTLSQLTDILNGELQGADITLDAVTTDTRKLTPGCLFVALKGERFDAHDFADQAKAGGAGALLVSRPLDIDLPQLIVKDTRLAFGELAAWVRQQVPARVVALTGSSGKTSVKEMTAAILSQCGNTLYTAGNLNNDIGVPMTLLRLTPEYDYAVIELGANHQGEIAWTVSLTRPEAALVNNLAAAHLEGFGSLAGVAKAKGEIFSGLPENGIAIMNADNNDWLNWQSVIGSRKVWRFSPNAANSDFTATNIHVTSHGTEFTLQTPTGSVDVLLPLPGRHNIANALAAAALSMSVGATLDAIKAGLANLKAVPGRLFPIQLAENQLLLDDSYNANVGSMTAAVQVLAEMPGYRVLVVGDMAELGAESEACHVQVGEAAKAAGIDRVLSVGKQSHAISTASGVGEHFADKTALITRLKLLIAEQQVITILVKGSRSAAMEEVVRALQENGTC
Chain of E. coli MurE (P22188 whole entry): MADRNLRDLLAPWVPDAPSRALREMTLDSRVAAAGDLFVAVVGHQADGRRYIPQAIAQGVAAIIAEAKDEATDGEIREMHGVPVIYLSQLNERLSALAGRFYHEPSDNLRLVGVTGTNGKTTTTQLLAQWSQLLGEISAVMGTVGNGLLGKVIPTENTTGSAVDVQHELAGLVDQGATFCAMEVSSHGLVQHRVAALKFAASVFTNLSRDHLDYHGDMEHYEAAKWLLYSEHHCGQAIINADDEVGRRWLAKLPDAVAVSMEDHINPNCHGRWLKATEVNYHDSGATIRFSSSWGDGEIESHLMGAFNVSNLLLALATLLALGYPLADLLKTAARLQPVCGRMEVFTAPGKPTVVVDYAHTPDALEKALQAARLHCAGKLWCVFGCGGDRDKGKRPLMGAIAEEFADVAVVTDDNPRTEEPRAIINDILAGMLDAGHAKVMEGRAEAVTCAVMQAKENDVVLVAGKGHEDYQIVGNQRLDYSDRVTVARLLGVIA

Take `COc1ccc([C@@H]2CC(=O)c3c(O)cc(O)cc3O2)cc1O` [Compound 1]: the remaining activity at 100 µM was 100 ± 10% on E. coli MurE (setting [1]), 94 ± 9% on E. coli MurD (setting [1]), 87 ± 8% at E. coli MurF and 100 ± 9% on E. coli MurC (setting [1]). Also, the minimal inhibitory concentration (MIC) in the experiment on E. coli (ATCC 25,922) (setting [2]) and with S. aureus (ATCC 29,213) (setting [3]) was greater than 250 µM each time.

Consider `COc1cc(O)c(CC=C(C)C)c2c1C(=O)C[C@@H](c1ccc(O)cc1)O2` [Compound 2], for which the remaining activity at 100 µM at E. coli MurE (setting [1]) was 77 ± 7%; at E. coli MurD (setting [1]), 100 ± 10%; on E. coli MurF, 78 ± 9%; at E. coli MurC (setting [1]) it was 86 ± 8%. The MIC with E. coli (ATCC 25,922) (setting [2]) was greater than 250 µM; with S. aureus (ATCC 29,213) (setting [3]), 250 µM. The “Inhibition of growth of S. aureus (in words)” value (“Inhibition” for short) with S. aureus (ATCC 29,213) (broth microdilution) is on record as “inhibit the growth”.

As for `CC(C)=CCc1c(O)cc(O)c2c1O[C@H](c1ccc(O)cc1)CC2=O` [Compound 3], the remaining activity at 100 µM at E. coli MurE (setting [1]) turned out to be 87 ± 9%; on E. coli MurD (setting [1]), 100 ± 8%; at E. coli MurF it was 71 ± 7%; at E. coli MurC (setting [1]), 95 ± 10%. In addition, the results for the MIC in the experiment with E. coli (ATCC 25,922) (setting [2]) and in the experiment on S. aureus (ATCC 29,213) (setting [3]) were greater than 250 µM and 62 µM, respectively. Also, the “Inhibition” value with S. aureus (ATCC 29,213) (broth microdilution) is reported as “inhibit the growth”.

In the case of `Cc1c(O)cc(O)c2c1O[C@H](c1ccccc1)CC2=O` [Compound 4], the remaining activity at 100 µM at E. coli MurE (setting [1]) came to 100 ± 9%; on E. coli MurD (setting [1]), 97 ± 8%; at E. coli MurF it was 88 ± 9%; on E. coli MurC (setting [1]), 91 ± 9%. Moreover, the MIC with E. coli (ATCC 25,922) (setting [2]) and in the experiment on S. aureus (ATCC 29,213) (setting [3]) was greater than 250 µM in each case.

Consider `O=C1C[C@@H](c2ccc(O)cc2)Oc2cc(O)cc(O)c21` [Compound 5], for which the remaining activity at 100 µM turned out to be 98 ± 9% on E. coli MurE (setting [1]), 100 ± 9% on E. coli MurD (setting [1]), 87 ± 9% at E. coli MurF and 97 ± 8% at E. coli MurC (setting [1]). Also, the minimum inhibitory concentration (MIC) with E. coli (ATCC 25,922) (setting [2]) and in the experiment with S. aureus (ATCC 29,213) (setting [3]) was greater than 250 µM throughout.

Consider `CC1OC(OCC2OC(Oc3c(-c4ccc(O)c(O)c4)oc4cc(O)cc(O)c4c3=O)C(O)C(O)C2O)C(O)C(O)C1O` (stereo not shown) [Compound 7], for which the remaining activity at 100 µM on E. coli MurE (setting [1]) worked out at 100 ± 10%; at E. coli MurD (setting [1]), 97 ± 9%; on E. coli MurF, 89 ± 10%; at E. coli MurC (setting [1]) it was 100 ± 10%. In addition, the MIC in the experiment with E. coli (ATCC 25,922) (setting [2]) and in the experiment with S. aureus (ATCC 29,213) (setting [3]) was greater than 250 µM in each case.

With `O=c1c(O[C@@H]2O[C@H](CO)[C@@H](O)[C@H](O)[C@H]2O)c(-c2ccc(O)c(O)c2)oc2cc(O)cc(O)c12` [Compound 8], the remaining activity at 100 µM was determined as 97 ± 8% on E. coli MurE (setting [1]), 100 ± 9% at E. coli MurD (setting [1]), 88 ± 9% at E. coli MurF and 95 ± 9% on E. coli MurC (setting [1]). Besides, the MIC with E. coli (ATCC 25,922) (setting [2]) and with S. aureus (ATCC 29,213) (setting [3]) was greater than 250 µM throughout.

In the case of `O=c1c(OC2OC(CO)C(O)C(O)C2O)c(-c2ccc(O)c(O)c2)oc2cc(O)cc(O)c12` (stereo not shown) [Compound 9], the remaining activity at 100 µM at E. coli MurE (setting [1]) is 100 ± 8%; on E. coli MurD (setting [1]), 100 ± 8%; on E. coli MurF it was 90 ± 8%; at E. coli MurC (setting [1]), 89 ± 8%. Further, the MIC in the experiment with E. coli (ATCC 25,922) (setting [2]) and with S. aureus (ATCC 29,213) (setting [3]) was greater than 250 µM throughout.

Regarding `O=c1c(O)c(-c2ccc(O)c(O)c2)oc2cc(O)cc(O)c12` [Compound 14, Quercetin], the figures for the remaining activity at 100 µM on E. coli MurE, on E. coli MurD and on E. coli MurC were 28 ± 4%, 43 ± 6% and 41 ± 5%, respectively. For the same molecule, the MIC in the experiment on E. coli (ATCC 25,922) (setting [2]) is greater than 250 µM; in the experiment on S. aureus (ATCC 29,213) (setting [3]), 250 µM. Further, the “Inhibition” value in the experiment on S. aureus (ATCC 29,213) (broth microdilution) was “inhibit the growth”.

For the molecule `CN(C)[C@@H]1C(O)=C(C(N)=O)C(=O)[C@@]2(O)C(O)=C3C(=O)c4c(O)cccc4[C@@](C)(O)[C@H]3C[C@@H]12` [Tetracycline, reference compound], the MIC in the experiment with E. coli (ATCC 25,922) (positive control on every assay plate, read-out: MIC E. coli, positive control) came to 1 µg/mL; in the experiment on S. aureus (ATCC 29,213) (positive control on every assay plate, read-out: MIC S. aureus, positive control), 0.5 µg/mL.

What is called MIC is the lowest concentration that inhibits growth of the organism.
